Data on six compounds can be found in patent US20090074876A1, “PEPTIDE COMPOSITION AND A METHOD OF PROMOTING CARTILAGE FORMATION” (Acologix, Inc., priority 2007, published 2009).

The subject of data set [1] is osteochondral defect in goat stifle joint. To be noted: in vivo. As for the experimental part:
In this study, the use of two different concentrations (See Table 1) of AC-100 in conjunction with a collagen sponge and a control with just the collagen sponge was implanted to evaluate the efficacy of AC-100 in repair of bone and cartilage (osteochondral) defects. The implants were intended to serve as an osteochondral allograft for cellular and matrix ingrowth. Efficacy to repair cartilage was assessed using gross and histological examination of the repair tissue. The primary objective was to determine whether AC-100 modifies and/or improves the healing of the osteochondral defect as compared to the study control group and the natural progression of historical controls using this model. This report describes the in vivo, gross and histological findings at the 12 and 24 weeks time points.
A single full-thickness chondral defects were created in the right hind leg stifle joint. The lesion site was located in the anterior medial femoral condyle. The basic surgical procedure was identical for all subjects. All surgeries were performed under strict asepsis. […]
Postoperative checks were made for any animal displaying signs of postoperative discomfort. […] All treatments were recorded in the appropriate study documentation. […]
Animals were humanely sacrificed at Day 84 (12 weeks) or Day 168 (24 weeks) postoperatively. Bodyweights were recorded immediately prior to sacrifice. […]

Data set [2] deals with human mesenchymal stem cells (hMSC). Description: proliferation assay with human mesenchymal stem cells, tritiated thymidine incorporation. Particulars: as compared to the vehicle. Type of data set: cell-based. As for the experimental part: The peptide of SEQ ID NO:34 was tested for its proliferation activity on human mesenchymal stem cells as compared to CMP-2 and IGF-1.
The same protocol and positive controls were used in this experiment.
SEQ ID NO:34 was selected for this experiment since the amino acid sequence of this peptide was derived from the corresponding region in rat and mouse MEPE where AC-100 was derived from human MEPE. Furthermore, as compared to all other known mammalian corresponding regions to AC-100, it is the least homologous to AC-100 (the human sequence).
For orientation: Uptake of a labelled nucleoside into DNA is a usual measure of proliferation.

For data set [3], the system named is 8 mm diameter defect in the rat parietal bones. Nature of the data set: rat calvaria defect model, bone bridging. Particulars: collagen sponge in defect, daily s.c. injections for 6 days, 28 days post-surgery, histology qualitative score; vs saline and AC-100. The format is in vivo. As for the experimental part: AC-101, 102, and 103 were tested for their defect bridging activities as compared to AC-100.
As a next step, necessity of RGD integrin-binding motif (SEQ ID NO:42) and SGDG glycosaminoglycan attachment motif (SEQ ID NO:43) to the bone formation activities was examined by testing the selected peptides synthesized in EXAMPLE 1 in a rat calvaria defect model. In this model an 8 mm diameter defect is created in the rat parietal bones and a collagen sponge cut to size is inserted into the defect. The test article is soaked into the sponge. Sub-cutaneous injections are administered daily for 6 days post-surgery. After 28 days post-surgery the rats are euthanized and the calvariae collected. The degree of bone bridging was determined by histology analysis using a qualitative scoring system. The tested peptides were SEQ ID NO: 22, 23, and 24, which were also encoded as AC-101, AC-102, and AC-103, respectively.
AC-100 that includes both the RGD integrin-binding motif and the SGDG glycosaminoglycan attachment motif was used as a positive control at the optimal dose.

Where a SMILES comes first, the peptide text is derived from it.

For the compound `CC[C@H](C)[C@H](NC(=O)[C@H](CC(=O)O)NC(=O)[C@H](CC(N)=O)NC(=O)[C@H](CC(=O)O)NC(=O)CNC(=O)[C@H](CCCNC(=N)N)NC(=O)[C@H](CCC(=O)O)NC(=O)[C@H](CCC(N)=O)NC(=O)[C@H](CC(C)C)NC(=O)[C@H](CC(=O)O)NC(=O)[C@@H](N)[C@@H](C)O)C(=O)N[C@@H](CO)C(=O)N1CCC[C@H]1C(=O)N[C@@H](Cc1ccccc1)C(=O)N[C@@H](CO)C(=O)NCC(=O)N[C@@H](CC(=O)O)C(=O)NCC(=O)N[C@@H](CCC(N)=O)C(=O)N1CCC[C@H]1C(=O)N[C@@H](Cc1ccccc1)C(=O)N[C@@H](CCCCN)C(=O)N[C@@H](CC(=O)O)C(N)=O` [AC-100] (H-TDLQERGDNDISPFSGDGQPFKD-NH2), in data set [1], the adverse events entry is given as “No adverse events were identified” and the “inflammatory response in sections” value is recorded as “no evidence of an inflammatory response”.

Take “IGF-1: Insulin-like Growth Factor-1, positive control in hMSC proliferation assay”: the “proliferation activities of the hMSC by tritiated-thymidine incorporation” value in data set [2] is reported as “Significant proliferation activities”. For PDLLVRGDNDVPPFSGDGQHFMH [SEQ ID NO:34], in data set [2], the “proliferation activities of the hMSC by tritiated-thymidine incorporation” value is listed as “Significant proliferation activities”. TDLQEDGRNDISPFGDGSQPFKD [AC-103]: the “degree of bone bridging” value in data set [3] is “improved versus saline treatment alone and was comparable to the activity of AC-100”.

Turning to TDLQEDGRNDISPFSGDGQPFKD [AC-101], in data set [3], the “degree of bone bridging” value is “improved versus saline treatment alone and was comparable to the activity of AC-100”.

As for TDLQERGDNDISPFGDGSQPFKD [AC-102], in data set [3], the “degree of bone bridging” value is “improved versus saline treatment alone and was comparable to the activity of AC-100”.
